Test results: patent publication US20260374756A1, “HETEROCYCLIC COMPOUNDS AS INHIBITORS OF MONOACYLGLYCEROL LIPASE (MAGL)” (Hoffmann-La Roche Inc., priority 2022, published 2026)

What follows are molecules tested against T1, hMAGL (Homo sapiens, UniProt Q99685) (assay: 2-AG assay: MAGL inhibition, hydrolysis of 2-arachidonoylglycerol to arachidonic acid followed by mass spectrometry).
T1 sequence (Q99685 1-303): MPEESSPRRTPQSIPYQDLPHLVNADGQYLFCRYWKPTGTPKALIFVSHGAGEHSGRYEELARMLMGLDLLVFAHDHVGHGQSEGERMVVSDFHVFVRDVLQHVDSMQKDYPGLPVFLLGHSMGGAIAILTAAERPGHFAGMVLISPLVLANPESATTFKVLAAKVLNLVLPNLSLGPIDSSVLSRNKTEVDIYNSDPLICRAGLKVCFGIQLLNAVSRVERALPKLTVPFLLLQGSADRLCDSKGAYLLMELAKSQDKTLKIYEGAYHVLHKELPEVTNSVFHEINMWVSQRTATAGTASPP
Type: biochemical
Procedure, shortened: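 MAGL preincubated with compound 15 min at RT in 50 mM Tris, 1 mM EDTA, 0.01% Tween-20, 2.5% DMSO; reaction started with 8 μM 2-AG (final), […], 30 min at RT. Quenched with acetonitrile containing d8-arachidonic acid; arachidonic acid quantified by RapidFire SPE-triple quad MS as arachidonic acid/d8 ratio.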
`N=S(=O)(c1cnn(CC2CC3(C2)CN(C(=O)N2CC4(CC(n5cnc(C(F)(F)F)n5)C4)C2)C3)c1)C(F)(F)F` (stereo not drawn) [Example 341, [6-[[4-(trifluoromethylsulfonimidoyl)pyrazol-1-yl]methyl]-2-azaspiro[3.3]heptan-2-yl]-[6-[3-(trifluoromethyl)-1,2,4-triazol-1-yl]-2-azaspiro[3.3]heptan-2-yl]methanone] showed an IC50 of 3.54 nM.
`O=C(N1CC2(CC(Cc3cc(C4CC4)[nH]n3)C2)C1)N1CC2(CC(n3cnc(C(F)F)n3)C2)C1` [Example 342, [6-[(5-cyclopropyl-1H-pyrazol-3-yl)methyl]-2-azaspiro[3.3]heptan-2-yl]-[6-[3-(difluoromethyl)-1,2,4-triazol-1-yl]-2-azaspiro[3.3]heptan-2-yl]methanone] gave an IC50 of 3.26 nM.
In the case of `O=C(N1CC2(CC(Cc3cc(C(F)(F)F)n[nH]3)C2)C1)N1CC2(CC(n3cnc(C(F)F)n3)C2)C1` [Example 343, [6-[3-(difluoromethyl)-1,2,4-triazol-1-yl]-2-azaspiro[3.3]heptan-2-yl]-[6-[[3-(trifluoromethyl)-1H-pyrazol-5-yl]methyl]-2-azaspiro[3.3]heptan-2-yl]methanone], the IC50 is reported as 2.62 nM.
`O=C(N1CC2(CC(Cc3n[nH]cc3C(F)(F)F)C2)C1)N1CC2(CC(n3cnc(C(F)F)n3)C2)C1` [Example 344, [6-[3-(difluoromethyl)-1,2,4-triazol-1-yl]-2-azaspiro[3.3]heptan-2-yl]-[6-[[4-(trifluoromethyl)-1H-pyrazol-3-yl]methyl]-2-azaspiro[3.3]heptan-2-yl]methanone] was tested, and the IC50 was 2.26 nM.
`O=C(N1CC2(CC(Cn3ncnc3C(F)(F)F)C2)C1)N1CC2(CC(n3cnc(C4CC4)n3)C2)C1` [Example 345, [6-(3-cyclopropyl-1,2,4-triazol-1-yl)-2-azaspiro[3.3]heptan-2-yl]-[6-[[5-(trifluoromethyl)-1,2,4-triazol-1-yl]methyl]-2-azaspiro[3.3]heptan-2-yl]methanone] gave an IC50 of 2.22 nM.
`O=C(N1CC2(CC(Cc3cn[nH]c3C(F)(F)F)C2)C1)N1CC2(CC(n3cnc(C(F)F)n3)C2)C1` [Example 346, [6-[3-(difluoromethyl)-1,2,4-triazol-1-yl]-2-azaspiro[3.3]heptan-2-yl]-[6-[[5-(trifluoromethyl)-1H-pyrazol-4-yl]methyl]-2-azaspiro[3.3]heptan-2-yl]methanone] was tested, and the IC50 was 1.99 nM.
`O=C(N1CC2(CC(Cc3cn(CC(F)(F)F)nn3)C2)C1)N1CC2(CC(n3cnc(C4CC4)n3)C2)C1` [Example 347, [6-(3-cyclopropyl-1,2,4-triazol-1-yl)-2-azaspiro[3.3]heptan-2-yl]-[6-[[1-(2,2,2-trifluoroethyl)triazol-4-yl]methyl]-2-azaspiro[3.3]heptan-2-yl]methanone] gave an IC50 of 1.77 nM.
`O=C(N1CC2(CC(Cc3nc(C(F)(F)F)c[nH]3)C2)C1)N1CC2(CC(n3cnc(C(F)(F)F)n3)C2)C1` [Example 348, [6-[[4-(trifluoromethyl)-1H-imidazol-2-yl]methyl]-2-azaspiro[3.3]heptan-2-yl]-[6-[3-(trifluoromethyl)-1,2,4-triazol-1-yl]-2-azaspiro[3.3]heptan-2-yl]methanone] was tested, and the IC50 was 1.51 nM.
`N=S(=O)(c1cnn(CC2CC3(C2)CN(C(=O)N2CC4(CC(n5cnc(C6CC6)n5)C4)C2)C3)c1)C(F)(F)F` (stereo not drawn) [Example 349, [6-(3-cyclopropyl-1,2,4-triazol-1-yl)-2-azaspiro[3.3]heptan-2-yl]-[6-[[4-(trifluoromethylsulfonimidoyl)pyrazol-1-yl]methyl]-2-azaspiro[3.3]heptan-2-yl]methanone] showed an IC50 of 1.02 nM.
`O=C(N1CC2(CC(Cc3cnn(CC(F)(F)F)n3)C2)C1)N1CC2(CC(n3cnc(C4CC4)n3)C2)C1` [Example 350, [6-(3-cyclopropyl-1,2,4-triazol-1-yl)-2-azaspiro[3.3]heptan-2-yl]-[6-[[2-(2,2,2-trifluoroethyl)triazol-4-yl]methyl]-2-azaspiro[3.3]heptan-2-yl]methanone] was tested, and the IC50 was 0.92 nM.
With `O=C(N1CC2(CC(Cc3nc(C(F)(F)F)c[nH]3)C2)C1)N1CC2(CC(n3cnc(C4CC4)n3)C2)C1` [Example 351, [6-(3-cyclopropyl-1,2,4-triazol-1-yl)-2-azaspiro[3.3]heptan-2-yl]-[6-[[4-(trifluoromethyl)-1H-imidazol-2-yl]methyl]-2-azaspiro [3.3]heptan-2-yl]methanone] the IC50 was 0.77 nM.
In the case of `O=C(N1CC2(CC(Cc3cc(C4(C(F)(F)F)CC4)[nH]n3)C2)C1)N1CC2(CC(n3cnc(C(F)F)n3)C2)C1` [Example 352, [6-[3-(difluoromethyl)-1,2,4-triazol-1-yl]-2-azaspiro[3.3]heptan-2-yl]-[6-[[5-[1-(trifluoromethyl)cyclopropyl]-1H-pyrazol-3-yl]methyl]-2-azaspiro[3.3]heptan-2-yl]methanone], the IC50 is reported as 0.6 nM.
For `O=C(N1CC2(CC(Cn3cc(S(=O)(=O)C(F)(F)F)cn3)C2)C1)N1CC2(CC(n3cnc(C(F)(F)F)n3)C2)C1` [Example 353, [6-[3-(trifluoromethyl)-1,2,4-triazol-1-yl]-2-azaspiro[3.3]heptan-2-yl]-[6-[(4-triflylpyrazol-1-yl)methyl]-2-azaspiro[3.3]heptan-2-yl]methanone], the IC50 was 0.19 nM.
In the case of `O=C(N1CC2(CC(Cc3cc(C4(C(F)(F)F)CC4)[nH]n3)C2)C1)N1CC2(CC(n3cnc(C(F)(F)F)n3)C2)C1` [Example 354], the IC50 is reported as 0.14 nM.
`O=C(N1CC2(CC(Cn3nccc3C3CC3)C2)C1)N1CC2(CC(n3cnc(C4CC4)n3)C2)C1` [Example 355, [6-[(5-cyclopropylpyrazol-1-yl)methyl]-2-azaspiro[3.3]heptan-2-yl]-[6-(3-cyclopropyl-1,2,4-triazol-1-yl)-2-azaspiro[3.3]heptan-2-yl]methanone] showed an IC50 of 0.11 nM.
For `O=C(N1CC2(CC(Cc3cnn4ccc(C(F)(F)F)nc34)C2)C1)N1CC2(CC(n3cnc(C4CC4)n3)C2)C1` [Example 358, [6-(3-cyclopropyl-1,2,4-triazol-1-yl)-2-azaspiro[3.3]heptan-2-yl]-[6-[[5-(trifluoromethyl)pyrazolo[1,5-a]pyrimidin-3-yl]methyl]-2-azaspiro[3.3]heptan-2-yl]methanone], the IC50 was 0.09 nM.
Molecule `O=C(N1CC2(CC(Cc3cnn4c(C(F)(F)F)ccnc34)C2)C1)N1CC2(CC(n3cnc(C4CC4)n3)C2)C1` [Example 359, [6-(3-cyclopropyl-1,2,4-triazol-1-yl)-2-azaspiro[3.3]heptan-2-yl]-[6-[[7-(trifluoromethyl)pyrazolo[1,5-a]pyrimidin-3-yl]methyl]-2-azaspiro[3.3]heptan-2-yl]methanone] has an IC50 of 0.13 nM.
`O=C(N1CC2(CC(Cc3cnn4cc(C(F)(F)F)cnc34)C2)C1)N1CC2(CC(n3cnc(C4CC4)n3)C2)C1` [Example 360, [6-(3-cyclopropyl-1,2,4-triazol-1-yl)-2-azaspiro[3.3]heptan-2-yl]-[6-[[6-(trifluoromethyl)pyrazolo[1,5-a]pyrimidin-3-yl]methyl]-2-azaspiro[3.3]heptan-2-yl]methanone] showed an IC50 of 0.3 nM.
